Our source for the IC50 values is US12527779B2, “Prostaglandin E2 (PGE2) EP4 receptor antagonists” (Domain Therapeutics, priority 2019, dated 2026).

Structures can show the parent of a compound that is named as a salt.

In this experiment the target is T1, human EP4 (hEP4) receptor (Homo sapiens, UniProt P35408).
T1 construct: expressed in transfected cells; host or cells: HEK-293 T cells, transient co-transfection with polyethylenimine
Kind of experiment: In vitro human EP4 functional antagonist activity using BRET biosensors (cAMP EPAC biosensor, TCS2510 stimulation). It is filed as cell-based. The following applies: antagonist activity vs EC60 TCS2510, hEP4 in HEK-293 T cells. The method, then: Examples of the present invention were tested successively for their agonist and antagonist activities on human EP4 (hEP4) receptor transiently over-expressed in HEK-293 T cells. […] The assay used to measure compound activity is based on the BRET technology. The unimolecular cAMP biosensor used to detect intracellular cAMP levels following GPCR stimulation consists of the EPAC protein fused to N- and C-terminal of Luciferase and GFP respectively.
Cell Culture and Transfection: HEK-293 T cells are maintained in Dulbecco's Modified Eagle's Medium supplemented with 10% Foetal Calf Serum, 1% Penicillin/Streptomycin at 37° C./5% CO2. Cells are co-transfected using polyethylenimine (25 kDa linear) with two DNA plasmids encoding hEP4, EPAC fused to luciferase (BRET donor) and to GFP (BRET acceptor). After transfection, cells are cultured (40,000 cells per well) for 48 h at 37° C./5% CO2.
BRET assay: Receptor activity is detected by changes in BRET signal. On the day of the assay, cells are rinsed and incubated in assay buffer (1.8 mM CaCl2, 1 mM MgCl2, 2.7 mM KCl, 137 mM NaCl, 0.4 mM NaH2PO4, 5.5 mM D-Glucose, 11.9 mM NaHCO3, 25 mM Hepes). Then, plates are equilibrated 1 h at 22° C. before adding compounds. Compounds and luciferase substrate are added to the cells using an automated device (Freedom Evo®, Tecan) and BRET readings are collected on EnVision (PerkinElmer) with specific filters (410 nm BW 80 nm, 515 nm BW 30 nm). Agonist and antagonist activities of compounds are consecutively evaluated on the same cell plate. Agonist activity is first measured after 5 min incubation with compound alone on the cells. Then, cells are stimulated by an EC60 TCS2510 concentration and luminescence is recorded for additional 10 min. EC60 TCS2510 concentration is the concentration giving 60% of the maximal TCS2510 response. Agonist or antagonist activities are evaluated in comparison to basal signals evoked by assay buffer or EC60 TCS2510 alone, respectively.
For IC50 determination, a dose-response test is performed using 10 concentrations (ranging over 4.5 logs) of each compound. Dose-response curves are fitted using the sigmoidal dose-response (variable slope) analysis in GraphPad Prism software (GraphPad Software) and IC50 of antagonist activity is calculated. Dose-response experiments are performed in duplicate, in two independent experiments. IC50 values are categorized as following: A: IC50<0.1 μM; B: IC50<1 μM.

T1 sequence (P35408 whole entry): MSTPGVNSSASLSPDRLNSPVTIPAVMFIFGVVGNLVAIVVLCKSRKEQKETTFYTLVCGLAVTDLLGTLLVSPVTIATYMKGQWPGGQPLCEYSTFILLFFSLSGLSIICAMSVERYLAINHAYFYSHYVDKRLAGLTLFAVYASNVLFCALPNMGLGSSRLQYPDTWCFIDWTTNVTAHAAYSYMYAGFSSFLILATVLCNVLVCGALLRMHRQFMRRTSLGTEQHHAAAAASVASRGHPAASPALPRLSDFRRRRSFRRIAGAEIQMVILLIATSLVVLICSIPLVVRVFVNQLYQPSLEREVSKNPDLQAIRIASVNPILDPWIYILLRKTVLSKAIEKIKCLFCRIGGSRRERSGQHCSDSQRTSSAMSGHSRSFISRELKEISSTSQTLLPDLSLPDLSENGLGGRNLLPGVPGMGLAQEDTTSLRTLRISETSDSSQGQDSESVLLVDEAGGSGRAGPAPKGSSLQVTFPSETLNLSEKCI

`COc1cccc(OCCN(C)C2(C(=O)N[C@@H](C)c3ccc(C(=O)O)cc3)CCCCC2)c1` [Example 60, 4-[(1S)-1-[[1-[2-(3-Methoxyphenoxy)ethyl-methyl-amino]cyclohexanecarbonyl]amino]ethyl]benzoic acid, hydrochloride] yielded an IC50 of under 100 nM. Consider `C[C@H](NC(=O)C1(NCc2cccc(F)c2)CCOCC1)c1ccc(C(=O)O)cc1` [Example 20, 4-[(1S)-1-[[4-[(3-Fluorophenyl)methylamino]tetrahydropyran-4-carbonyl]amino]ethyl]benzoic acid, hydrochloride], for which the IC50 was under 1000 nM. The compound `Cc1cccc([C@H](C)NC(=O)C2(N3CC[C@@H](Oc4cccc(C(F)(F)F)c4)C3)CCOCC2)c1` [Example 194, N—((S)-1-(3-Methylphenyl)ethyl)-4-((R)-3-(3-(trifluoromethyl)phenoxy)pyrrolidin-1-yl)tetrahydro-2H-pyran-4-carboxamide, hydrochloride] returned a 50% inhibitory concentration (IC50) of under 1000 nM. `CCCN(CCOc1ccccc1)C1(C(=O)NC2(c3ccc(C(=O)O)cc3)CC2)CCOCC1` [Example 26, 4-[1-[[4-[Propyl(2-phenoxyethyl)amino]tetrahydropyran-4-carbonyl]amino]cyclopropyl]benzoic acid, hydrochloride] registered an IC50 of under 1000 nM.

`C[C@H](NC(=O)C1(c2ccc(OCC(F)(F)F)cc2)CCOCC1)c1ccc(C(=O)O)cc1` [Example 91, 4-[(1S)-1-[[4-[4-(2,2,2-Trifluoroethoxy)phenyl]tetrahydropyran-4-carbonyl]amino]ethyl]benzoic acid] displayed an IC50 of under 1000 nM. Consider `C[C@H](NC(=O)C1(NCCOc2cc(F)cc(F)c2)CCOCC1)c1ccc(C(=O)O)cc1` [Example 16, 4-[(1S)-1-[[4-[2-(3,5-Difluorophenoxy)ethylamino]tetrahydropyran-4-carbonyl]amino]ethyl]benzoic acid, hydrochloride], for which the 50% inhibitory concentration (IC50) was under 100 nM.

Compound `C[C@H](NC(=O)C1(N2CC[C@@H](Oc3cccc(C(F)(F)F)c3)C2)CCOCC1)c1cccnc1` [Example 185, N—((S)-1-(Pyridin-3-yl)ethyl)-4-((R)-3-(3-(trifluoromethyl)phenoxy)pyrrolidin-1-yl)tetrahydro-2H-pyran-4-carboxamide, hydrochloride] had an IC50 of under 1000 nM. Take `C[C@H](NC(=O)C1(c2cccc(OCC3CCCC3)c2)CCOCC1)c1ccc(C(=O)O)cc1` [Example 102, 4-[(1S)-1-[[4-[3-(Cyclopentylmethoxy)phenyl]tetrahydropyran-4-carbonyl]amino]ethyl]benzoic acid]: the IC50 was under 1000 nM.

Take `C[C@H](NC(=O)C1(c2ccc(OCCC3CCCCC3)cn2)CCCC1)c1ccc(C(=O)O)cc1` [Example 128, 4-[(1S)-1-[[1-[5-(2-Cyclohexylethoxy)-2-pyridyl]cyclopentanecarbonyl]amino]ethyl]benzoic acid]: the half-inhibitory concentration (IC50) is under 1000 nM.

Regarding `C[C@H](NC(=O)C1(c2ccc(OCC3CCCCC3)cc2)CCOCC1)c1ccc(C(=O)O)cc1` [Example 89, 4-[(1S)-1-[[4-[4-(Cyclohexylmethoxy)phenyl]tetrahydropyran-4-carbonyl]amino]ethyl]benzoic acid], the 50% inhibitory concentration (IC50) was under 1000 nM.

`C[C@H](NC(=O)C1(N2CC[C@@H](Oc3cccc(Cl)c3)C2)CCCCC1)c1ccc(C(=O)O)cc1` [Example 155, 4-[(1S)-1-[[1-[(3R)-3-(3-Chlorophenoxy)pyrrolidin-1-yl]cyclohexane-1-carbonyl]amino]ethyl]benzoic acid, hydrochloride] returned a half-inhibitory concentration (IC50) of under 100 nM. `O=C(O)c1ccc(C2(NC(=O)C3(N4CC[C@H](Oc5cccc(Cl)c5)C4)CCOCC3)CC2)cc1` [Example 139, 4-[1-[[4-[(3S)-3-(3-Chlorophenoxy)pyrrolidin-1-yl]tetrahydropyran-4-carbonyl]amino]cyclopropyl]benzoic acid, hydrochloride] had a 50% inhibitory concentration (IC50) of under 1000 nM. `CN(CCOc1cccc(Cl)c1)C1(C(=O)NC2(c3ccc(C(=O)O)cc3)CC2)CCOCC1` [Example 29, 4-[1-[[4-[2-(3-Chlorophenoxy)ethyl-methyl-amino]tetrahydropyran-4-carbonyl]amino]cyclopropyl]benzoic acid, hydrochloride] returned an IC50 of under 100 nM. Regarding `COc1cccc(OCCNC2(C(=O)N[C@@H](C)c3ccc(C(=O)O)cc3)CCOCC2)c1` [Example 13, 4-[(1S)-1-[[4-[2-[3-Methoxyphenoxy]ethylamino]tetrahydropyran-4-carbonyl]amino]ethyl]benzoic acid, hydrochloride], the IC50 is under 100 nM. For `C[C@H](NC(=O)C1(N2CC[C@@H](Oc3cccc(C(F)(F)F)c3)C2)CCOCC1)c1ccc(S(C)(=O)=O)cc1` [Example 179, N—((S)-1-(4-(Methylsulfonyl)phenyl)ethyl)-4-((R)-3-(3-(trifluoromethyl)phenoxy)pyrrolidin-1-yl)tetrahydro-2H-pyran-4-carboxamide, hydrochloride] the value was under 100 nM; for `C[C@H](NC(=O)C1(N2CC[C@H](Oc3cccc(Cl)c3)C2)CCOCC1)c1ccc(C(=O)O)cc1` [Example 138, 4-[(1S)-1-[[4-[(3S)-3-(3-Chlorophenoxy)pyrrolidin-1-yl]tetrahydropyran-4-carbonyl]amino]ethyl]benzoic acid, hydrochloride], under 1000 nM.

On to `O=C(O)c1ccc(C2(NC(=O)C3(N4CCC[C@@H](Oc5cccc(Cl)c5)C4)CCOCC3)CC2)cc1` [Example 137, 4-[1-[[4-[(3R)-3-(3-Chlorophenoxy)-1-piperidyl]tetrahydropyran-4-carbonyl]amino]cyclopropyl]benzoic acid, hydrochloride], for which the IC50 is under 100 nM. As for `O=C(O)c1ccc(C2(NC(=O)C3(N4CCC[C@H](Oc5cccc(Cl)c5)C4)CCOCC3)CC2)cc1` [Example 135, 4-[1-[[4-[(3S)-3-(3-Chlorophenoxy)-1-piperidyl]tetrahydropyran-4-carbonyl]amino]cyclopropyl]benzoic acid, hydrochloride], the 50% inhibitory concentration (IC50) was under 1000 nM. `C[C@H](NC(=O)C1(N2CC[C@@H](Oc3cccc(C(F)(F)F)c3)C2)CCOCC1)c1ccccc1` [Example 183, N—((S)-1-Phenylethyl)-4-((R)-3-(3-(trifluoromethyl)phenoxy)pyrrolidin-1-yl)tetrahydro-2H-pyran-4-carboxamide, hydrochloride] showed an IC50 of under 1000 nM. The value for `COc1cccc([C@H](C)NC(=O)C2(N3CC[C@@H](Oc4cccc(C(F)(F)F)c4)C3)CCOCC2)c1` [Example 196, N—((S)-1-(3-Methoxyphenyl)ethyl)-4-((R)-3-(3-(trifluoromethyl)phenoxy)pyrrolidin-1-yl)tetrahydro-2H-pyran-4-carboxamide, hydrochloride] was under 1000 nM; that for `COc1cccc(O[C@@H]2CCN(C3(C(=O)NC4(c5ccc(C(=O)O)cc5)CC4)CCOCC3)C2)c1` [Example 149, 4-[1-[[4-[(3R)-3-(3-Methoxyphenoxy)pyrrolidin-1-yl]tetrahydropyran-4-carbonyl]amino]cyclopropyl]benzoic acid, hydrochloride] was under 100 nM; that for `C[C@H](NC(=O)C1(N2CC[C@@H](Oc3cccc(C(F)(F)F)c3)C2)CCOCC1)c1ccc(Br)cc1` [Example 190, N—((S)-1-(4-Bromophenyl)ethyl)-4-((R)-3-(3-(trifluoromethyl)phenoxy)pyrrolidin-1-yl)tetrahydro-2H-pyran-4-carboxamide, hydrochloride] was under 1000 nM.

For orientation: IC50 means the concentration that gives 50% inhibition. Low readings indicate greater potency in that assay, high ones weaker potency in that assay.
